Data: US7375124B2, “Use of α-phenylthiocarboxylic and α-phenyloxycarboxylic acids with serum-glucose-lowering and serum-lipid-lowering activity” (Sigma-Tau Industrie Farmaceutiche Riunite S.p.A., priority 2002, dated 2008)

How the values were obtained:
mPPARαLBD/Gal4DBD = target: T1, mPPARαLBD/Gal4DBD (Mus musculus, UniProt P23204); test: Transactivation assay mediated by mPPARαLBD/Gal4DBD in COS-7 cells (CAT reporter); assay type: cell-based
T1 construct: expressed in transfected cells; host or cells: COS-7 (monkey kidney fibroblasts)
T1 sequence (P23204 239-466 limits assumed): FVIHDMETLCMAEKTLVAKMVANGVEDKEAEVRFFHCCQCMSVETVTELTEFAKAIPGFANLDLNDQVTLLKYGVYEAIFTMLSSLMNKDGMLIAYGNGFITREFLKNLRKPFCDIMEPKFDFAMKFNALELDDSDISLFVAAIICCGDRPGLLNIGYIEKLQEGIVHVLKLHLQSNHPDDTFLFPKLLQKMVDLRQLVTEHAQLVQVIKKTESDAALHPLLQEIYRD
Description: In this model a transactivation assay is used in which the expression vector mPPARαLBD/Gal4 DBD allows the synthesis by the transfected cell of a chimeric protein, in which the ligand binding domain (LBD) of PPARα is fused with the DNA binding domain (DBD) of the transcription factor GAL4 of yeast [Luckow B. et al., Nucleic Acids Res. 15, 5490 (1987)]. Simultaneously, a plasmid (pG5CAT) is transfected which contains 5 copies of the high-affinity binding site for GAL4 (also called UAS, upstream activating sequence), upstream of the viral promoter E1b fused with the CAT reporter gene [Moya-Camarena S. Y. et al., J. Lipid Res. 40 (8), 1426-33 (1999)]. This model eliminates interference by possible endogenous receptors.
This is due to the fact that the activation of E1b and the production of CAT will occur exclusively thanks to the interaction of GAL4 DBD with its own response element (UAS). Since the transcription factor GAL4 is not expressed in […] cells, transactivation of the reporter gene can take place only when, as a result of the interaction of a ligand with the LBD of PPARα, the chimeric protein PPARα/GAL4 recognises the UAS sequence on the plasmid pG5CAT. Together with the expression vector and the reporter vector the cells were also transfected with the plasmid pCH110 which provides the internal control for the efficiency of transfection and the normalisation of the results.
A monkey kidney fibroblast cell line (COS-7) was used [Elbrecht A. et al., J. Biol. Chem. 274 (12), 7913-22 (1999)]. The cells were co-transfected with the reporter vector, the expression plasmid coding for the fusion protein Gal4 DBD/PPARαLBD and the control vector pCH110. The cells were exposed to increasing concentrations of the study compounds and CAT activity was evaluated. Untreated cells were used as controls.
(§1) Monkey kidney fibroblasts (COS-7) were cultured according to the usual cell culture techniques, at 37° C. in a 5% v/v carbon dioxide atmosphere using as the growth medium DMEM (Dulbecco's modified Eagle's medium) modified with 3.7 g/l of sodium bicarbonate, 4 mM L-glutamine, 4.5 g/l of glucose, 1 mM sodium pyruvate and 10% v/v of foetal bovine serum, in the presence of streptomycin 100 μg/ml and penicillin 100 U/ml final.
The cells were co-transfected using the transfection reagent FuGENE6 (Roche), consisting of a defined mixture of lipids capable of complexing the DNA and of transporting it into the cells. Twenty-four hours prior to transfection the cells were plated at a density of 1.2×10^5 cells/well in 12-well plates and maintained at 37° C. in a 5% v/v CO2 atmosphere. […] Briefly, the transfection mixture containing 0.8 μg of the expression vector, 1.6 μg of the reporter vector, 0.8 μg of the control vector and 9 μl of the FuGENE6 reagent per well was added directly to the cells in the presence of culture medium devoid of serum. After 5 hours, the transfection medium was replaced by 1 ml of culture medium complete with serum and antibiotics in the presence or absence of the molecules to be tested at 3 different concentrations (2, 20 and 100 μM). Wy-14,643 (2 μM), a known ligand of PPARα, was used as the positive reference compound.
After 48 hours' incubation at 37° C. in a 5% v/v CO2 atmosphere, the cells were washed twice with 1 ml of phosphate buffer (PBS) and removed mechanically from the wells in TEN buffer (Tris[hydroxymethyl]aminomethane 10 mM pH 8, ethylenediamine-tetraacetic acid 1 mM pH 8, sodium chloride 0.1 M). After centrifuging for 3 minutes at 1000 rpm, the cells were resuspended in 65 μl of lysis buffer (Tris-HCl 0.25 M, pH 8) and then lysed thanks to three rapid freeze-thaw cycles. The insoluble cellular materials (debris) were removed by centrifuging at 15,000 rpm for 15 minutes at 4° C., and the supernatant was recovered and used for the CAT and β-galactosidase activity assays. […]

PPARγ = target: T2, PPARγ (Mus musculus, UniProt P37238); test: Transactivation assay mediated by PPARγ in NIH-3T3 cells (CAT reporter); assay type: cell-based
T2 construct: expressed in transfected cells; host or cells: NIH-3T3 (mouse embryonal fibroblasts)
T2 sequence (P37238 1-475 isoform P37238-2): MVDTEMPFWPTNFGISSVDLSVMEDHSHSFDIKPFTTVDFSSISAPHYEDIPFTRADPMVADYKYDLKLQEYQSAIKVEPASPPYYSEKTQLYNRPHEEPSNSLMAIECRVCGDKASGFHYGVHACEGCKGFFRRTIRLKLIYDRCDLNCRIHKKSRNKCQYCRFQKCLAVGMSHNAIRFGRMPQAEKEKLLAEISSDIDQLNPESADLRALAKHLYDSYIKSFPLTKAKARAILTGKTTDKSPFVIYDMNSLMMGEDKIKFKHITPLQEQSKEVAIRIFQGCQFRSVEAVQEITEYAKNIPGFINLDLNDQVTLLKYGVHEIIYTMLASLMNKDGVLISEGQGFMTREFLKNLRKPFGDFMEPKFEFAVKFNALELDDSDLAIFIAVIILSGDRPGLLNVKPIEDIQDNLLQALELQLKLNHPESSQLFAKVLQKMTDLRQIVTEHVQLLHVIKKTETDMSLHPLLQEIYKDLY
Description: A transactivation assay specific for PPARγ thus requires the simultaneous presence of the following in the preselected cell line: • a) a sufficient amount of PPARγ; • b) a sufficient amount of the 9 cis-retinoic acid receptor (RXR); • c) a chimeric plasmid containing the reporter gene controlled by a PPRE, located upstream of a viral heterologous promoter. In our case the reporter gene is chloramphenicol-acetyl transferase (CAT).
In the transactivation assay used, the preselected cells are transfected with the expression vector pSG5 Stop-mPPARg1 which allows the synthesis of the PPARγ receptor by the transfected cell. Simultaneously, a plasmid reporter (pBLCAT2-PPRE) is transfected which contains a peroxisome proliferator response element (PPRE) isolated by the gene promoter for acyl-CoA oxidase, upstream of the heterologous promoter of viral thymidine kinase (TK) fused with the reporter gene CAT. Since the endogenous cell levels of the RXR receptor are sufficiently high, it is not necessary to transfect an expression vector specific for RXR as well. […] Therefore, any increase in CAT levels will be the result of increased gene transcription dependent upon the dimerisation of PPARγ with RXR and upon the heterodimer bond formed with the peroxisome proliferator response element. Together with the expression vector and the reporter vector the cells are also transfected with the plasmid pCH110 which provides the internal control for the efficiency of transfection and the normalisation of the results
A cell line of mouse embryonal fibroblasts (NIH-3T3) was used [Hogan J. C. et al., Biochem Biophys Res Commun. 287 (2), 484-92 (2001)]. The cells were transfected with the reporter plasmid, the expression plasmid coding for the PPARγ receptor and the control vector pCH110. The cells were exposed to increasing concentrations of the study compounds and CAT activity was evaluated. Untreated cells were used as controls.
as §1, with “Mouse embryonal” for “Monkey kidney”, “(NIH-3T3)” for “(COS-7)”, “calf” for “foetal bovine”
The cells were co-transfected using the transfection reagent FuGENE6 (Roche), already described in the previous example. Twenty-four hours prior to transfection the cells were plated at a density of 8.0×10^4 cells/well in 12-well plates and maintained at 37° C. in a 5% v/v CO2 atmosphere. The culture medium, devoid of serum, was replaced 2 hours before transfection, and then the cells were treated with the transfection reagent FuGENE6, as described in the previous example. After 5 hours, the transfection medium was replaced by 1 ml of culture medium complete with serum and antibiotics in the presence or absence of the molecules to be tested at 3 different concentrations (2, 20 and 100 μM). Rosiglitazone, a known ligand of PPARγ, was used as the positive reference compound.
The cell protein extracts were prepared and the CAT activity assay was conducted exactly as described in the previous example.
As an internal control for the normalisation of the CAT activity in relation to the transfection efficiency, β-galactosidase activity coded for by the corresponding gene in the co-transfected plasmid pCH110 was used.
β-galatosidase activity was measured exactly as described in the previous example.
For the normalisation of the CAT assay results in relation to […] activity the formula described in the previous example was used.

`COC(=O)C(C)(C)Sc1cccc(OCCn2c3ccccc3c3ccccc32)c1` [Example 6, methyl 2-[3-(2-(carbazol-9-yl)ethoxy)phenylthio]isobutyrate] gave a melting point of 101 to 103 °C.
In the case of `COC(=O)C(C)(C)Sc1ccc(OCCn2c3ccccc3c3ccccc32)cc1` [Example 7, methyl 2-[4-(2-(carbazol-9-yl)ethoxy)phenylthio]isobutyrate], the melting point is reported as 72 to 74 °C.
In the case of `COC(=O)C(C)(C)Sc1ccc(OCCc2ccc3ccccc3c2)cc1` [Example 11, methyl 2-[4-[2-(2-naphthyl)ethoxy]phenylthio]isobutyrate], the melting point is reported as 56 to 57 °C.
In the case of `CC(C)(Sc1ccc(OCCc2ccc(Cl)cc2)cc1)C(=O)O` [Example 12, 2-[4-[2-(4-chlorophenyl)ethoxy]phenylthio]-2-methylpropanoic acid], the melting point is reported as 87 to 88 °C.
For `CC(C)(Sc1cccc(OCCc2ccc(Cl)cc2Cl)c1)C(=O)O` [Example 13, 2-[3-(2-(2,4-dichlorophenyl)ethoxy)phenylthio]-2-methylpropanoic acid], the “Activation of reporter gene CAT as a percentage of the reference compound (WY-14,643 2 μM = 100%)” value (mPPARαLBD/Gal4DBD; 2 μM) was 132.3%, the “Activation of reporter gene CAT as a percentage of the reference compound (WY-14,643 2 μM = 100%)” value (mPPARαLBD/Gal4DBD; 20 μM) was 199.3% and the “Activation of reporter gene CAT as a percentage of the reference compound (WY-14,643 2 μM = 100%)” value (mPPARαLBD/Gal4DBD; 100 μM) was 203.8%. For the same compound, the “Activation of the gene-reporter CAT as a percentage of the reference compound (rosiglitazone 2 μM = 100%)” value (PPARγ; 2 μM) was 61.6%, the “Activation of the gene-reporter CAT as a percentage of the reference compound (rosiglitazone 2 μM = 100%)” value (PPARγ; 20 μM) was 91.6% and the “Activation of the gene-reporter CAT as a percentage of the reference compound (rosiglitazone 2 μM = 100%)” value (PPARγ; 100 μM) was 101%.
In the case of `CC(C)(Sc1cccc(OCCc2ccc3ccccc3c2)c1)C(=O)O` [Example 18, 2-[3-[2-(2-naphthyl)ethoxy]phenylthio]-2-methylpropanoic acid], the “Activation of reporter gene CAT as a percentage of the reference compound (WY-14,643 2 μM = 100%)” value (mPPARαLBD/Gal4DBD; 2 μM) is reported as 85%, the “Activation of reporter gene CAT as a percentage of the reference compound (WY-14,643 2 μM = 100%)” value (mPPARαLBD/Gal4DBD; 20 μM) is reported as 96.4% and the “Activation of reporter gene CAT as a percentage of the reference compound (WY-14,643 2 μM = 100%)” value (mPPARαLBD/Gal4DBD; 100 μM) is reported as 151.9%. For the same compound, the “Activation of the gene-reporter CAT as a percentage of the reference compound (rosiglitazone 2 μM = 100%)” value (PPARγ; 2 μM) was 25%, the “Activation of the gene-reporter CAT as a percentage of the reference compound (rosiglitazone 2 μM = 100%)” value (PPARγ; 20 μM) was 67% and the “Activation of the gene-reporter CAT as a percentage of the reference compound (rosiglitazone 2 μM = 100%)” value (PPARγ; 100 μM) was 82.2%.
In the case of `CC(C)(Sc1ccc(OCCc2ccc3ccccc3c2)cc1)C(=O)O` [Example 19, 2-[4-[2-(2-naphthyl)ethoxy]phenylthio]-2-methylpropanoic acid], the melting point is reported as 103 to 104 °C.
`COC(=O)C(C)(C)Sc1cccc(OCc2ccc(-c3ccc([N+](=O)[O-])cc3)o2)c1` [Example 22, methyl 2-[3-[5-(4-nitrophenyl)furfuryloxy]phenylthio]isobutyrate] showed a melting point of 81 to 82 °C.
`CC(C)(Sc1cccc(OCc2ccc(-c3ccc([N+](=O)[O-])cc3)o2)c1)C(=O)O` [Example 25, 2-methyl-2-[3-[5-(4-nitrophenyl)furfuryloxy]phenylthio]propanoic acid] showed a melting point of 137 to 138 °C.
